We go through one compound from patent publication US20110262954A1, “SHUTTLE VECTOR BASED TRANSFORMATION SYSTEM FOR PYROCOCCUS FURIOSUS” (UNIVERSITAT REGENSBURG, priority 2010, published 2011).

The data set can be described thus: stability of simvastatin at incubation temperature (inferred from growth inhibition). The note with it: 95° C. compared with 85° C.

Regarding `CCC(C)(C)C(=O)O[C@H]1C[C@@H](C)C=C2C=C[C@H](C)[C@H](CC[C@@H]3C[C@@H](O)CC(=O)O3)[C@H]21` [simvastatin], the stability of simvastatin entry was “dramatically decreased”.
